Assay results: US8124051B2, “Complex drug delivery composition and method for treating cancer” (priority 2003, dated 2012)
Where no end group is shown, it is not given here. [ ]: non-standard residue; d: D form.

Assays:
[1] = tested on: LHRHR-positive A2780 human ovarian carcinoma cells; experiment: Cytotoxicity, modified MTT assay; type: cell-based; settings: for toxicity: LHRHR-positive cancer cells, up to the highest possible concentration
Description: (§1) In contrast, LHRH-BH3 peptide was not toxic in cancer cells not expressing LHRHR. Further, non-targeted Ant-BH3 peptide was toxic in both LHRHR-positive and negative cancer cells. […] Thus, the LHRH peptide specifically targets cancer cells expressing the LHRHR and facilitates the uptake of LHRH-conjugates.
Cytotoxicity of CPT, CPT-PEG, CPT-PEG-BH3, and CPT-PEG-LHRH conjugates and the combination of CPT-PEG-BH3 with CPT-PEG-LHRH conjugates was analyzed using a modified MTT assay (Minko, et al. (1998) supra) in sensitive A2780 and multidrug resistant A2780/AD human ovarian carcinoma cells.
(§2) Cytotoxicity. The cytotoxicity of drugs were assessed using a modified MTT (3-(4,5-dimethylthiazol-2-yl)-2,5-diphenyltetrazolium bromide) assay (Kunath, et al. (2000) Eur. J. Pharm. Biopharm 49:11-15; Minko, et al. (1998) J. Controlled Rel. 54:223-233; Minko, et al. (1999) J. Controlled Rel. 59:133-148; Minko, et al. (2002) Cancer Chemother. Pharmacol. 50:143-150). To measure cytotoxicity, cells were incubated in a 96-well microtiter plate with 45 different equivalent concentrations of CPT ranging from […] in a complex conjugate. Six wells were used for control cells. The duration of incubation was varied from 3 to 72 hours to find an optimal range of incubation time for each complex conjugate.

[2] = tested on: A2780 human ovarian carcinoma cells; experiment: RT-PCR expression of caspases, APAF-1 and SMAC; type: cell-based
Description: The effect of the LHRH-BH3 peptide on apoptosis was analyzed by measuring transcriptional and translational levels and activity of human caspases. […] Active caspase 9, in turn, activates a cascade of downstream caspases, as evidenced by increased expression levels, which subsequently leads to induction of apoptosis.
Cystein aspartate-specific proteases (caspases). Three approaches were used to analyze the role of each of the human caspases in the apoptosis induction. First, the expression of genes encoding human caspases 1-10 and the Apoptotic Protease Activating Factor (APAF-1) and Second Mitochondria-Derived Activator of Caspase (SMAC) were studied by RT-PCR (Minko, et al. (1999) supra; Minko, et al. (2000) supra). […] Therefore, in addition to the measurement of the gene expression, the amount of active caspases and activity of the enzymes was measured. The amount of active caspases was estimated by western blot analysis. The activity of expressed caspases was measured using the Caspase Protease Assay kit (MBL International, Watertown, Mass.) or a colorimetric protease assay kit (PanVera, Madison, Wis.) (Minko, et al. (2001) supra). Cells were separately incubated with the conjugates for 48 hours. The assay colormetric assay is based on the spectrophotometric detection of the chromophore p-nitroanilide (pNA) after cleavage from the substrate, X-pNA. An increase in caspase activity was determined by comparing levels in cells exposed to conjugates to levels in cells of the untreated control incubated with saline.
(§3) Gene expression. A combination of reverse transcription (RT) and polymerase chain reaction (PCR) was used for the analysis of gene expression as described (Minko, et al. (1999) J. Controlled Rel. 59:133-148). Briefly, total cellular RNA was isolated using an RNeasy kit (QIAGEN,™, Valencia, Calif.) and a […]™ micro-spin homogenizer (QIAGEN). First-strand cDNA was synthesized by Ready-To-Go You-Prime First-Strand Beads (Amersham Biosciences, Piscataway, N.J.) according to the manufacturer's instructions with 2 μg of total cellular RNA (from 1×10^7 cells) and 100 ng of random hexadeoxynucleotide primer (Amersham Biosciences, Piscataway, N.J.). After synthesis, the reaction mixture was diluted 1:3 with water and immediately subjected to PCR, which was carried out using GenAmp PCR System 2400 (Perkin Elmer Instruments, Shelton, Conn.). The pairs of primers used to amplify each type of cDNA and PCR regimes are well-known in the art (Kunath, et al. (2000) supra; Minko, et al. (2003) supra; Minko, et al. (2002) supra; Minko, et al. (1999) supra; Minko, et al. (2000) supra; Minko, et al. (2001) supra). PCR products were separated in 4% NUSIEVE® 3:1 RELIANT® agarose gels (BMA, East Rutherford, N.J.) in 1×TBE buffer (0.089 M Tris/Borate, 0.002 M EDTA, pH 8.3) by submarine electrophoresis. The gels were stained with ethidium bromide and digitally photographed. To calculate the size and amount of PCR products, a Low DNA Mass ladder (GibcoBRL, Carlsbad, Calif.) was used. β2-microglobulin was used as an internal standard and to confirm the efficacy of PCR (Kunath, et al. (2000) supra; Minko, et al. (2001) supra).

[3] = tested on: human ovarian carcinoma cells; experiment: Cytotoxicity (IC50 dose) of Ant, Ant-BH3 peptide and DOX; type: cell-based; settings: highest possible concentration
Description: (§4) By way of example, the effectiveness of a BH3 peptide ([…] SEQ ID NO:1) to increase cell death by inducing the mitochondrial dysfunction leading to necrosis was measured. BH3 peptide was delivered into human ovarian carcinoma cells by the Antennapedia (Ant) internalization sequence (Arg-Gln-Ile-lys-[…] SEQ ID NO:2). Mitochondrial function was assessed by flow cytometry analysis using the lipophilic cationic fluorescent probe 5,5′,6,6′-tetrachloro-1,1′,3,3′-tetraethylbenzimidazolcarbo-cyanine iodide (JC-1). This probe exists as a monomer, and upon excitation at 490 nm, emits light at 527 nm resulting in green fluorescence. At high mitochondrial transmembrane potential, JC-1 forms multimers, known as J-aggregates, and emits light at 590 nm upon excitation at 490 nm resulting in red fluorescence. Therefore, the red/green fluorescence ratio measured by flow cytometry reflects the number of functioning mitochondria. […] The effect of the Ant-BH3 peptide on mitochondrial transmembrane potential was also determined.
Cytotoxicity. The cytotoxicity of drugs were assessed using a modified MTT (3-(4,5-dimethylthiazol-2-yl)-2,5-diphenyltetrazolium bromide) assay (Kunath, et al. (2000) Eur. J. Pharm. Biopharm 49:11-15; Minko, et al. (1998) J. Controlled Rel. 54:223-233; Minko, et al. (1999) J. Controlled Rel. 59:133-148; Minko, et al. (2002) Cancer Chemother. Pharmacol. 50:143-150). […]

[4] = tested on: A2780 human ovarian carcinoma cells; experiment: Expression of BCL-2, BCL-XL, SMAC, APAF-1, caspase 9 and caspase 3 genes after CPT conjugates; type: cell-based; settings: 48-hour incubation
Description: The expression of genes encoding antiapoptotic members of the BCL-2 protein family (BCL-2 and BCL-XL), caspase activators (SMAC and APAF-1), caspase 9 (apoptosis inhibitor) and caspase 3 (apoptosis executor) as well as the activity of the caspases was measured after a 48-hour incubation of A2780 human ovarian carcinoma cells with CPT, CPT-PEG, CPT-PEG-BH3, or CPT-PEG-LHRH conjugates.
Gene expression. A combination of reverse transcription (RT) and polymerase chain reaction (PCR) was used for the analysis of gene expression as described (Minko, et al. (1999) J. Controlled Rel. 59:133-148). Briefly, total cellular RNA was isolated using an RNeasy kit (QIAGEN,™, Valencia, Calif.) and a […] ™ micro-spin homogenizer (QIAGEN). First-strand cDNA was synthesized by Ready-To-Go You-Prime First-Strand Beads (Amersham Biosciences, Piscataway, N.J.) according to the manufacturer's instructions with 2 μg of total cellular RNA (from 1×10^7 cells) and 100 ng of random hexadeoxynucleotide primer (Amersham Biosciences, Piscataway, N.J.). After synthesis, the reaction mixture was diluted 1:3 with water and immediately subjected to PCR, which was carried out using GenAmp PCR System 2400 (Perkin Elmer Instruments, Shelton, Conn.). […]

[5] = tested on: human ovarian carcinoma cells; experiment: Mitochondrial transmembrane potential, JC-1 probe, flow cytometry; type: cell-based; settings: JC-1 red/green fluorescence ratio
Description: as §4, with “mitochondria. Ant alone was not toxic up to the highest possible concentration (1 mg/mL). In contrast, the combination of Ant with BH3 peptide led to a significant increase in toxicity of the peptide.” for “mitochondria.”

[6] = tested on: genes encoding proapoptotic members of the BCL-2 protein family; experiment: RT-PCR expression of genes encoding proapoptotic members of the BCL-2 protein family; type: cell-based, human; settings: 48 hours, IC50 dose of Ant-BH3 peptide; β2-m internal standard
Description: (§5) The influence of BH3 peptide, delivered by an Ant-BH3 fusion peptide, on the expression of proteins and genes encoding proapoptotic and antiapoptotic members of the BCL-2 protein family was determined. The expression of genes was measured by RT-PCR using β2-m as an internal standard.
(§6) Cell death signaling pathways. To characterize the cell death signaling pathways, the expression of p53, c-fos, c-jun, proapoptotic (BAD, BAX, BCL-G, BCL-W, BCL-XS, BID, BIK, BIM, BNIP 1-3, HARAKIR1, MSL-1S, NIX) and antiapoptotic (BCL-2, AVEN, BAG, BCL-XL, BFL, DAD1, MSL-1) members of BCL-2 family of proteins and genes encoding these proteins were measured by western blot analysis and RT-PCR, respectively using well-established methods known to those of skill in the art.
as §3

[7] = tested on: genes encoding antiapoptotic members of the BCL-2 protein family; experiment: RT-PCR expression of genes encoding antiapoptotic members of the BCL-2 protein family; type: cell-based, human; settings: 48 hours, IC50 dose of Ant-BH3 peptide; β2-m internal standard
Description: as §5, §6, §3

[8] = tested on: cancer cells not expressing LHRHR; experiment: Cytotoxicity in LHRHR-negative cancer cells; type: cell-based
Description: as §1, §2

LHRH receptor = target: T1, LHRH receptor (human, UniProt P30968 1-328); experiment: cell-based or functional assay
T1 sequence (looked up): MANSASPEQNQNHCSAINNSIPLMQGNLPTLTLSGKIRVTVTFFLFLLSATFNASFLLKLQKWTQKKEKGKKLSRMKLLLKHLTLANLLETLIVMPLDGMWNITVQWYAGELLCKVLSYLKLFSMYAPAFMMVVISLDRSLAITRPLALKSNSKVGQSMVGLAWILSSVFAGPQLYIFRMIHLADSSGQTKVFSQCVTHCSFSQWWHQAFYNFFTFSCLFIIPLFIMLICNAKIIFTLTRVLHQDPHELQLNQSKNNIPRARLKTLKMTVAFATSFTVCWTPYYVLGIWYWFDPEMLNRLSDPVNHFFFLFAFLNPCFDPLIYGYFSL

[9] = A2780, 48 hours, IC50 dose of peptide, ratio of band intensity to β2-m internal standard

CCNC(=O)[C@@H]1CCCN1C(=O)[C@H](CCCNC(=N)N)NC(=O)[C@H](CC(C)C)NC(=O)[C@@H](CCCCN)NC(=O)[C@H](Cc1ccc(O)cc1)NC(=O)[C@H](CO)NC(=O)[C@H](Cc1c[nH]c2ccccc12)NC(=O)[C@H](Cc1c[nH]cn1)NC(=O)[C@@H]1CCC(=O)N1 [LHRH peptide, LHRH-Lys^6-des-Gly^10-Pro^9-ethylamide, reference compound]
toxicity [1]: did not have any significant toxicity

Met-Gly-Gln-Val-Gly-Arg-Gln-Leu-Ala-Ile-Ile-Gly-Asp-Asp-Ile-Asn-Arg-Arg-Tyr (MGQVGRQLAIIGDDINRRY; Synthetic BH3 domain peptide) [BH3 peptide]
concentration up to which not toxic ([1]; A2780, maximal possible concentration limited by solubility): > 1 mg/mL | expression of caspases 1, 4, and 5 ([2]; A2780 cells): not expressed

Arg-Gln-Ile-lys-Ile-Trp-Phe-Gln-Asn-Arg-Arg-Met-Lys-Trp-Lys-Lys (RQIKIWFQNRRMKWKK; Antennapedia internalization peptide)
concentration up to which not toxic [3]: > 1 mg/mL

CC[C@@]1(O)C(=O)OCc2c1cc1n(c2=O)Cc2cc3ccccc3nc2-1 [CPT, camptothecin]
activation of caspase-dependent apoptosis pathway and cellular antiapoptotic defense (gene expression) [4]: activated both caspase-dependent pathways of apoptosis and cellular antiapoptotic defense

RQIKIWFQNRRMKWKKMGQVGRQLAIIGDDINRRY [Ant-BH3]
changes in mitochondrial membrane potential [5]: did not lead to statistically significant changes | Expression, % of Control: BAD [6]: 90 ± 8 % of Control | Expression, % of Control: BAX [6]: 91 ± 9 % of Control | Expression, % of Control: BCL-G [6]: 87 ± 11 % of Control | Expression, % of Control: BCL-XS [6]: 168 ± 11 % of Control | Expression, % of Control: BID [6]: 99 ± 9 % of Control | Expression, % of Control: BIK [6]: 511 ± 42 % of Control | Expression, % of Control: BIM [6]: 114 ± 17 % of Control | Expression, % of Control: BNIP-1 [6]: 93 ± 8 % of Control | Expression, % of Control: BNIP-2 [6]: 173 ± 14 % of Control | Expression, % of Control: BNIP-3 [6]: 69 ± 6 % of Control | Expression, % of Control: HRK [6]: 88 ± 10 % of Control | Expression, % of Control: MLS-1S [6]: 130 ± 11 % of Control | Expression, % of Control: NIX [6]: 89 ± 10 % of Control | Expression, % of Control: AVEN [7]: 78 ± 2 % of Control | Expression, % of Control: BAG [7]: 56 ± 5 % of Control | Expression, % of Control: BCL-2 [7]: 66 ± 7 % of Control | Expression, % of Control: BCL-W [7]: 97 ± 8 % of Control | Expression, % of Control: BCL-XL [7]: 64 ± 3 % of Control | Expression, % of Control: BFL [7]: 70 ± 2 % of Control | Expression, % of Control: DAD-1 [7]: 99 ± 5 % of Control | Expression, % of Control: MCL-1L [7]: 108 ± 8 % of Control | toxicity [1]: toxic | toxicity [8]: toxic | Mean Gene Expression ± SD: APAF-1 [2, 9]: 78 ± 3 | Mean Gene Expression ± SD: Caspase 2 [2, 9]: 134 ± 5 | Mean Gene Expression ± SD: Caspase 3 [2, 9]: 60 ± 5 | Mean Gene Expression ± SD: Caspase 6 [2, 9]: 77 ± 5 | Mean Gene Expression ± SD: Caspase 7 [2, 9]: 88 ± 8 | Mean Gene Expression ± SD: Caspase 8 [2, 9]: 70 ± 6 | Mean Gene Expression ± SD: Caspase 9 [2, 9]: 126 ± 11 | Mean Gene Expression ± SD: Caspase 10 [2, 9]: 48 ± 3 | Mean Gene Expression ± SD: SMAC [2, 9]: 77 ± 2 | expression of APAF-1 and SMAC ([2]; A2780 cells): up-regulation

B1: LHRH-BH3 peptide (peptide)
peptide 1: QHWSY[dK]LRP-NHEt
peptide 2: MGQVGRQLAIIGDDINRRY
modifications: ends and bridges not checked; also: LHRH analog and BH3 peptide are joined, the linkage is not given here
cytotoxicity IC50 (modified MTT assay), LHRHR-positive A2780 human ovarian cancer cells (LHRH receptor): 3.97 ng/mL | toxicity in MCF-7 cells (LHRHR expression 1.6-fold less) relative to toxicity in A2780 cells, fold less (LHRH receptor): 10 fold | toxicity in PC-3 cells (LHRHR expression 3.2-fold less) relative to toxicity in A2780 cells, fold less (LHRH receptor): 100 fold

B2: LHRH-Lys^6-des-Gly^10-Pro^9-ethylamide (active analog of the LHRH peptide) (peptide)
peptide: QHWSY[dK]LRP-NHEt
modifications: ends and bridges not checked
concentration of LHRH that decreased cytotoxicity of LHRH-BH3 peptide by 50% (EC50 dose of LHRH peptide), A2780 cells (LHRH receptor): 7.3e-05 ng/mL
